Key:
Experiment in all cases: KINOMEscan
Assay type in all cases: binding
TSSK1B = TSSK1B (Homo sapiens (Human), UniProt Q9BXA7); settings: 10000 nM, read-out: Percent Control
GRK4 = GRK4 (Homo sapiens (Human), UniProt P32298); settings: GRK4, 10000 nM; read-out: Percent Control
AMPK-alpha2 = AMPK-alpha2 (Homo sapiens (Human), UniProt P54646); settings: AMPK-alpha2, 10000 nM; read-out: Percent Control
YES = YES (Homo sapiens (Human), UniProt P07947); settings: 10000 nM, read-out: Percent Control
CAMK4 = CAMK4 (Homo sapiens (Human), UniProt Q16566); settings: CAMK4, 10000 nM; read-out: Percent Control
LCK = LCK (Homo sapiens (Human), UniProt P06239); settings: 10000 nM, read-out: Percent Control
KIT(A829P) = KIT(A829P) (Homo sapiens (Human), UniProt P10721, A829P); settings: 10000 nM, read-out: Percent Control
ALK(C1156Y) = ALK(C1156Y) (Homo sapiens (Human), UniProt Q9UM73, C1156Y); settings: 10000 nM, read-out: Percent Control
IGF1R = IGF1R (Homo sapiens (Human), UniProt P08069); settings: 10000 nM, read-out: Percent Control
ULK2 = ULK2 (Homo sapiens (Human), UniProt Q8IYT8); settings: ULK2, 10000 nM; read-out: Percent Control
MAP3K1 = MAP3K1 (Homo sapiens (Human), UniProt Q13233); settings: MAP3K1, 10000 nM; read-out: Percent Control
PKAC-beta = PKAC-beta (Homo sapiens (Human), UniProt P22694); settings: 10000 nM, read-out: Percent Control
ICK = ICK (Homo sapiens (Human), UniProt Q9UPZ9); settings: 10000 nM, read-out: Percent Control
ABL1-phosphorylated = ABL1-phosphorylated (Homo sapiens (Human), UniProt P00519); settings: 10000 nM, read-out: Percent Control
CSNK1A1L = CSNK1A1L (Homo sapiens (Human), UniProt Q8N752); settings: 10000 nM, read-out: Percent Control
PIM2 = PIM2 (Homo sapiens (Human), UniProt Q9P1W9); settings: PIM2, 10000 nM; read-out: Percent Control
GSK3A = GSK3A (Homo sapiens (Human), UniProt P49840); settings: 10000 nM, read-out: Percent Control
YANK1 = YANK1 (Homo sapiens (Human), UniProt Q8WU08); settings: YANK1, 10000 nM; read-out: Percent Control
DRAK1 = DRAK1 (Homo sapiens (Human), UniProt Q9UEE5); settings: DRAK1, 10000 nM; read-out: Percent Control
SgK110 = SgK110 (Homo sapiens (Human), UniProt P0C264); settings: SgK110, 10000 nM; read-out: Percent Control
EPHA2 = EPHA2 (Homo sapiens (Human), UniProt P29317); settings: EPHA2, 10000 nM; read-out: Percent Control
SIK = SIK (Homo sapiens (Human), UniProt P57059); settings: 10000 nM, read-out: Percent Control
DYRK2 = DYRK2 (Homo sapiens (Human), UniProt Q92630); settings: DYRK2, 10000 nM; read-out: Percent Control
ERK4 = ERK4 (Homo sapiens (Human), UniProt P31152); settings: ERK4, 10000 nM; read-out: Percent Control
HASPIN = HASPIN (Homo sapiens (Human), UniProt Q8TF76); settings: 10000 nM, read-out: Percent Control
EPHA5 = EPHA5 (Homo sapiens (Human), UniProt P54756); settings: EPHA5, 10000 nM; read-out: Percent Control
GRK3 = GRK3 (Homo sapiens (Human), UniProt P35626); settings: GRK3, 10000 nM; read-out: Percent Control
NEK4 = NEK4 (Homo sapiens (Human), UniProt P51957); settings: NEK4, 10000 nM; read-out: Percent Control
FLT4 = FLT4 (Homo sapiens (Human), UniProt P35916); settings: FLT4, 10000 nM; read-out: Percent Control
[1] = biological target: ABL1(F317I)-phosphorylated (Homo sapiens (Human), UniProt P00519, F317I); settings: 10000 nM, read-out: Percent Control
ERK1 = ERK1 (Homo sapiens (Human), UniProt P27361); settings: ERK1, 10000 nM; read-out: Percent Control
[2] = biological target: RPS6KA4(Kin.Dom.2-C-terminal) (Homo sapiens (Human), UniProt O75676); settings: 10000 nM, read-out: Percent Control
TBK1 = TBK1 (Homo sapiens (Human), UniProt Q9UHD2); settings: TBK1, 10000 nM; read-out: Percent Control
CSNK1E = CSNK1E (Homo sapiens (Human), UniProt P49674); settings: 10000 nM, read-out: Percent Control
LRRK2(G2019S) = LRRK2(G2019S) (Homo sapiens (Human), UniProt Q5S007, G2019S); settings: 10000 nM, read-out: Percent Control
Chain of LRRK2(G2019S) (Q5S007 whole entry G2019S): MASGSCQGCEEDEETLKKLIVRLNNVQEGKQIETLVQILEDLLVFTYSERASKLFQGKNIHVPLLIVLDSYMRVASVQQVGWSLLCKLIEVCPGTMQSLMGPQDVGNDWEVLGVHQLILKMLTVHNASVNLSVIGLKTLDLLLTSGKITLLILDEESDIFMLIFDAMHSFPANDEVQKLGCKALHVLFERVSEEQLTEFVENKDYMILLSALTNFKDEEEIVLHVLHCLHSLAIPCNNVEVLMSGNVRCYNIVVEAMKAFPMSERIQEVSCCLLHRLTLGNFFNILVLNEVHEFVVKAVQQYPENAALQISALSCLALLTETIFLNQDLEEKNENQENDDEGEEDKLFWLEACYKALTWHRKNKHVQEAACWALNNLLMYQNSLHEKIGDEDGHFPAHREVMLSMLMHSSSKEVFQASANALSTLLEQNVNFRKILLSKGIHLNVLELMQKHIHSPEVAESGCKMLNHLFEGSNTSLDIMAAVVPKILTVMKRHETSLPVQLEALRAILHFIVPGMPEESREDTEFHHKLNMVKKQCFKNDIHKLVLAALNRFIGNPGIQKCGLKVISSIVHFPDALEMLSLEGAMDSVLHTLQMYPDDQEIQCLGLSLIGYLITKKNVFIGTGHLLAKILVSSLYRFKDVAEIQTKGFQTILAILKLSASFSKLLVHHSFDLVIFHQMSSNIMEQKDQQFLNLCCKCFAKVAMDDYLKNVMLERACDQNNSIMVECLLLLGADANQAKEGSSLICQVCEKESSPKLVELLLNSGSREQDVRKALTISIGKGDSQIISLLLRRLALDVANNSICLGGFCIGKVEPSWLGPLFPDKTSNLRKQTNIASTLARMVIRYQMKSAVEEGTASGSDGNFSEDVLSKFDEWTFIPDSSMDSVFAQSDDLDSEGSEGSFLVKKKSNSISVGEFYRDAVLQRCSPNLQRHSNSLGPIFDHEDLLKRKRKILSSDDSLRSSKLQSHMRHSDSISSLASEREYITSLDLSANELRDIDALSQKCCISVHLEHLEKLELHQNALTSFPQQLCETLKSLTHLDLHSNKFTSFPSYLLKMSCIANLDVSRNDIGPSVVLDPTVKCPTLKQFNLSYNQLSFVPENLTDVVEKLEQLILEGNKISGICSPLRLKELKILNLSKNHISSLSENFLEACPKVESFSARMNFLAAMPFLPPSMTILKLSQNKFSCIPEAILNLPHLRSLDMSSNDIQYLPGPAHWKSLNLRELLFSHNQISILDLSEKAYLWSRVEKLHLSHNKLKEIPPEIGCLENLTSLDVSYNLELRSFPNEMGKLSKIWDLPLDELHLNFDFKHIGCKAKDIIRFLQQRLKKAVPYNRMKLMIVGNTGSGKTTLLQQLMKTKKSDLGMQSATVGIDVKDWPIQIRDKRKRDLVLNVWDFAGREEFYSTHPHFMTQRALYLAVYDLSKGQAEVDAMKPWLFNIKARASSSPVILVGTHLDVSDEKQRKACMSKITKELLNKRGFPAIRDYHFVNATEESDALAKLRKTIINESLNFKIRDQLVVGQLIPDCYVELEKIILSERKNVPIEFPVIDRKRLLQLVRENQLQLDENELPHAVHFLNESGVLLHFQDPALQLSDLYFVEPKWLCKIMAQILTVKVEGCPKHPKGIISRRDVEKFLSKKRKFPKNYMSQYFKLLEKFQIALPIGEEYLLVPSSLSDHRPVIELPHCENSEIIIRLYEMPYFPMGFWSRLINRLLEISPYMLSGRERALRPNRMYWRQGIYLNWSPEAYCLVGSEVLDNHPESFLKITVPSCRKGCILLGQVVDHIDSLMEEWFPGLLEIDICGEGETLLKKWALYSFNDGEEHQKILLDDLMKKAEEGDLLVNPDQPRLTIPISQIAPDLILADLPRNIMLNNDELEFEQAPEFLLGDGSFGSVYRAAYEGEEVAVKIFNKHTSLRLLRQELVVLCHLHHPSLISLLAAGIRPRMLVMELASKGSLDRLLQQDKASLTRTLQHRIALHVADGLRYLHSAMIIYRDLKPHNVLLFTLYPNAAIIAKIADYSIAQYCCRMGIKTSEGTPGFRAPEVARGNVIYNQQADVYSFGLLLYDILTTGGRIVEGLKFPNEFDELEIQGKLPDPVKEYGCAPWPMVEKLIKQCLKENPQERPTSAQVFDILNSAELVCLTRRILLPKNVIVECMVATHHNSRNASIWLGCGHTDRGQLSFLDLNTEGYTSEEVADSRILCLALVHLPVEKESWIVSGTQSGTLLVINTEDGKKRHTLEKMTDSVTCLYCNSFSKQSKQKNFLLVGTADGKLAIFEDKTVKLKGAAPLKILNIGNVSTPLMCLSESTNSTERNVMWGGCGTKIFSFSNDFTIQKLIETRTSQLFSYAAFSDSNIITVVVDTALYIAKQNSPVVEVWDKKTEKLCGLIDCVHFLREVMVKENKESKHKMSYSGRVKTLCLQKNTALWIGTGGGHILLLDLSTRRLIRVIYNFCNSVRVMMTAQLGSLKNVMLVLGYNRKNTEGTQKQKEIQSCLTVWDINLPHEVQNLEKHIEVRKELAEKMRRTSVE

Chain of CSNK1E (P49674 whole entry): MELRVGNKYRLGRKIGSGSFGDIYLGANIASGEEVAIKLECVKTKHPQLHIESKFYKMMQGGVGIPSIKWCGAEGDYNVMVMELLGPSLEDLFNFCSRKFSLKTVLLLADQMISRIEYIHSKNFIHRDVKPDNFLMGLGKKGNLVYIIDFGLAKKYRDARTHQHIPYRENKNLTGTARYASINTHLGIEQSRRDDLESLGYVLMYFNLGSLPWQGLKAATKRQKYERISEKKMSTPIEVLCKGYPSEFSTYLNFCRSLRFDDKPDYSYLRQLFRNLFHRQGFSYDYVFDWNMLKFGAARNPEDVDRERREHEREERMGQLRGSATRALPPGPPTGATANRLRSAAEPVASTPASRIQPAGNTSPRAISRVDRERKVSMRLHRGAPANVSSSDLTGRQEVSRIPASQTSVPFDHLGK
Chain of PIM2 (Q9P1W9 whole entry): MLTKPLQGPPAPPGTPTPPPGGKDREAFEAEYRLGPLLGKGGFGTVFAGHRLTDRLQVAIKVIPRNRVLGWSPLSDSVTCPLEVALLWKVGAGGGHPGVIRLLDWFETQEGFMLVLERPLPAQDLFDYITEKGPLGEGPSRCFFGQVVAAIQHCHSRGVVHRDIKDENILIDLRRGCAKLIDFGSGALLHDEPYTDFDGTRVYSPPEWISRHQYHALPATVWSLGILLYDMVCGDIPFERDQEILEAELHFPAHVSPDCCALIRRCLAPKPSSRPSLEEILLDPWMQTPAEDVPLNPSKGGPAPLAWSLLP
Chain of ABL1(F317I)-phosphorylated (P00519 whole entry F317I): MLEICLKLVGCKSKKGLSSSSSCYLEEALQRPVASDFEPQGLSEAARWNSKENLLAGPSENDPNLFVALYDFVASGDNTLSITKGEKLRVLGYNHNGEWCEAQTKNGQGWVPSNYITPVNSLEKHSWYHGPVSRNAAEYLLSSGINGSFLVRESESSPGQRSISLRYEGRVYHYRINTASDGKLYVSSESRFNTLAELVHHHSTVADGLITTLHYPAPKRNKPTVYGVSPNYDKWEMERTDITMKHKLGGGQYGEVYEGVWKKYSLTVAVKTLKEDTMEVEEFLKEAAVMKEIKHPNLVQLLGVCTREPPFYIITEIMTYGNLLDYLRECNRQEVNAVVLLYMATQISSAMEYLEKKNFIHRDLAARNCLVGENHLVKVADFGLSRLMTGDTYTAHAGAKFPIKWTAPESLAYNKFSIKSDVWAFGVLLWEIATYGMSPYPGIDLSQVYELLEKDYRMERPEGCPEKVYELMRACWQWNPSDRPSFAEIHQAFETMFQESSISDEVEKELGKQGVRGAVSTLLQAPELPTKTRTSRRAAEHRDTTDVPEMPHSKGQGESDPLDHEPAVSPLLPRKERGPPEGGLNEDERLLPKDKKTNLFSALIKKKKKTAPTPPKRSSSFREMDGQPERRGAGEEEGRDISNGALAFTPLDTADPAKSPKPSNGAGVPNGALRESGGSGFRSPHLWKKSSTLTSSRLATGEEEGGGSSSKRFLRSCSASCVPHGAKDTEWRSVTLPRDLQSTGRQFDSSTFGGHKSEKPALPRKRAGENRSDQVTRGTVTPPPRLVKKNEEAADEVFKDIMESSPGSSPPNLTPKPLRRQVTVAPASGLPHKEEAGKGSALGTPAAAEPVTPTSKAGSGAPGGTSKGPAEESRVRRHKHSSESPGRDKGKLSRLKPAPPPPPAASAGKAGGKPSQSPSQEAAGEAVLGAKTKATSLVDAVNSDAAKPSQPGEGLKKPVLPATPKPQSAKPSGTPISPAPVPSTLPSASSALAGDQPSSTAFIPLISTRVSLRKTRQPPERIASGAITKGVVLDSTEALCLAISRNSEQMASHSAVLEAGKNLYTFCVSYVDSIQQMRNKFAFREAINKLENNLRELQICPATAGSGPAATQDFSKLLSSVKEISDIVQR
Chain of ERK1 (P27361 whole entry): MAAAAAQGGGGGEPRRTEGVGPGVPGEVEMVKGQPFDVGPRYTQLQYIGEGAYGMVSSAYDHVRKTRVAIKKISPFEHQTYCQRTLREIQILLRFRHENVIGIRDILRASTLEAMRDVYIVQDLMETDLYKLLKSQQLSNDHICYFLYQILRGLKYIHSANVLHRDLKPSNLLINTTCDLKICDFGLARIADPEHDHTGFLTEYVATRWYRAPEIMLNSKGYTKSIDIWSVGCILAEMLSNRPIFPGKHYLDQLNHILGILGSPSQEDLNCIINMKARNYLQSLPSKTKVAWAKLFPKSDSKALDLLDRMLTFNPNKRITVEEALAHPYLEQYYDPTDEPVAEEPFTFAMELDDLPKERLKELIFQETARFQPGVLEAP
Chain of CSNK1A1L (Q8N752 whole entry): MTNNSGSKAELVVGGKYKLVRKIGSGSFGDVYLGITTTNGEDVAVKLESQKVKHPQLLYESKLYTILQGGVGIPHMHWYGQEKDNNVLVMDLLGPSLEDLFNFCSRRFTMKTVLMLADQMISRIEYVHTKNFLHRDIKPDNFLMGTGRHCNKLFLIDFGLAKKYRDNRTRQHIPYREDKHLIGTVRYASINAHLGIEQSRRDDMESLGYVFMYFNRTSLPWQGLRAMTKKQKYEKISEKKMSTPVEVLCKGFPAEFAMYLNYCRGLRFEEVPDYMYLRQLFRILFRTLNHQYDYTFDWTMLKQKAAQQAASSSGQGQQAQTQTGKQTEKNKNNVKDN

Structure (SMILES)	remaining binding at 10 µM (TSSK1B)	remaining binding at 10 µM (GRK4)	remaining binding at 10 µM (AMPK-alpha2)	remaining binding at 10 µM (YES)	remaining binding at 10 µM (CAMK4)	remaining binding at 10 µM (LCK)	remaining binding at 10 µM (KIT(A829P))	remaining binding at 10 µM (ALK(C1156Y))	remaining binding at 10 µM (IGF1R)	remaining binding at 10 µM (ULK2)	remaining binding at 10 µM (MAP3K1)	remaining binding at 10 µM (PKAC-beta)	remaining binding at 10 µM (ICK)	remaining binding at 10 µM (ABL1-phosphorylated)	remaining binding at 10 µM (CSNK1A1L)	remaining binding at 10 µM (PIM2)	remaining binding at 10 µM (GSK3A)	remaining binding at 10 µM (YANK1)	remaining binding at 10 µM (DRAK1)	remaining binding at 10 µM (SgK110)	other results
COc1cc(N2CCC(N3CCN(C)CC3)CC2)ccc1Nc1ncc2c(n1)N(C)c1sc(C)nc1C(=O)N2 [Compound 3, 6-((2-methoxy-4-(4-(4-methylpiperazin-1-yl)piperidin-1-yl)phenyl)amino)-2,4-dimethyl-4,9-dihydro-10H-pyrimido[5,4-b]thiazolo[5,4-e][1,4]diazepin-10-one]	74%	72%	83%	72%	98%	45%	47%	100%	86%	100%	100%	82%	100%	17%	78%	92%	82%	77%	95%	86%	remaining binding at 10 µM (EPHA2): 91%; remaining binding at 10 µM (SIK): 69%; remaining binding at 10 µM (DYRK2): 100%; remaining binding at 10 µM (ERK4): 84%; remaining binding at 10 µM (HASPIN): 96%; remaining binding at 10 µM (EPHA5): 65%; remaining binding at 10 µM (GRK3): 100%; remaining binding at 10 µM (NEK4): 100%; remaining binding at 10 µM (FLT4): 92%; remaining binding at 10 µM [1]: 14%; remaining binding at 10 µM (ERK1): 88%; remaining binding at 10 µM [2]: 100%; remaining binding at 10 µM (TBK1): 71%; remaining binding at 10 µM (CSNK1E): 82%; remaining binding at 10 µM (LRRK2(G2019S)): 100%
COc1cc(N2CCC(N3CCN(C)CC3)CC2)ccc1Nc1ncc2c(n1)N(C)c1sc(C)nc1C(=O)N2C [Compound 5, 6-((2-methoxy-4-(4-(4-methylpiperazin-1-yl)piperidin-1-yl)phenyl)amino)-2,4,9-trimethyl-4,9-dihydro-10H-pyrimido[5,4-b]thiazolo[5,4-e][1,4]diazepin-10-one]	68%	97%	100%	97%	100%	100%	100%	89%	40%	81%	100%	100%	100%	79%	100%	100%	100%	100%	100%	92%	remaining binding at 10 µM (EPHA2): 91%; remaining binding at 10 µM (SIK): 100%; remaining binding at 10 µM (DYRK2): 100%; remaining binding at 10 µM (ERK4): 100%; remaining binding at 10 µM (HASPIN): 89%; remaining binding at 10 µM (EPHA5): 95%; remaining binding at 10 µM (GRK3): 81%; remaining binding at 10 µM (NEK4): 100%; remaining binding at 10 µM (FLT4): 100%; remaining binding at 10 µM [1]: 26%; remaining binding at 10 µM (ERK1): 92%; remaining binding at 10 µM [2]: 30%; remaining binding at 10 µM (TBK1): 88%; remaining binding at 10 µM (CSNK1E): 100%; remaining binding at 10 µM (LRRK2(G2019S)): 21%

— US12365696B2, “Small-molecule focal adhesion kinase (FAK) inhibitors” (DANA-FARBER CANCER INSTITUTE, INC., priority 2019, dated 2025)
